Results: patent US7557091B2, “HKI10311129, novel antibiotic, method for producing the same and the use thereof” (Leibniz-Institut fuer Naturstoff-Forschung und …, priority 2004, dated 2009)
Converted amounts (≈) assume the structure as drawn.

Key:
Test in all cases: MIC determination by NCCLS dilution antimicrobial susceptibility test
Type in all cases: cell-based
[1] = tested on: enterococcus faecalis 1528 (VRE); conditions: vanA-type vancomycin resistance
Source text: (§1) The antibacterial effects of HKI10311129 can be determined by applying methods well-known to the experts, such as the agar plate diffusion test and the determination of the minimal inhibitory concentration (MIC).
(§2) The antimicrobial characteristics have been tested according to the US laboratory standards—National Committee for Clinical Laboratory Standards, Methods for dilution anti-microbial susceptibility tests for bacteria that grow aerobically, Approved Standard M7-A. NCCLS, Villanova, Pa., 1991).

[2] = tested on: bacillus subtilis ATCC 6633; conditions: ATCC6633
Source text: as §1, §2

[3] = tested on: staphylococcus aureus 134/93 (MRSA); conditions: multiresistant
Source text: as §1, §2

[4] = tested on: staphylococcus aureus SG 511; conditions: SG511
Source text: as §1, §2

Question: With COC1=CC(=O)c2c(cc3c(c2O)C(=O)C2(OC4CCC(OC5CCC(O)C(C)O5)C(C)O4)C(=O)C(C(N)=O)=C(O)C(OC4CCC(OC5CCC(OC6CCC(OC7CCC(O)C(C)O7)C(C)O6)C(C)O5)C(C)O4)C2C3)C1=O (stereo not shown) [HKI10311129] as the compound, how does the MIC [1] read?
Answer: 0.4 µg/mL (≈ 0.359 µM)

Question: And the MIC [2]?
Answer: < 0.05 µg/mL

Question: And the MIC [3]?
Answer: 0.8 µg/mL (≈ 0.718 µM)

Question: And the MIC [4]?
Answer: 0.8 µg/mL (≈ 0.718 µM)
